Consider one molecule from patent US20180199575A1, “SUBSTITUTED OXOTETRAHYDROQUINOLINYLPHOSPHINIC ACID AND PHOSPHINIC ACID AMIDES OR SALTS THEREOF AND USE THEREOF TO INCREASE STRESS TOLERANCE IN PLANTS” (priority 2015, published 2018).

The target of the assay is T1, phosphatase ABI1 via the co-regulator RCAR11/PYR1 (Arabidopsis thaliana, UniProt O49686+P49597).
T1 sequence (O49686 1-191): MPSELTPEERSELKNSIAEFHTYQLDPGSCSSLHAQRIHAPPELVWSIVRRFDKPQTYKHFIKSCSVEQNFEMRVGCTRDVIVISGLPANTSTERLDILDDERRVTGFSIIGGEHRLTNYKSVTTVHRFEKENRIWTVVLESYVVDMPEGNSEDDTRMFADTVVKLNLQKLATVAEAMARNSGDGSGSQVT
T1 sequence (P49597 1-434): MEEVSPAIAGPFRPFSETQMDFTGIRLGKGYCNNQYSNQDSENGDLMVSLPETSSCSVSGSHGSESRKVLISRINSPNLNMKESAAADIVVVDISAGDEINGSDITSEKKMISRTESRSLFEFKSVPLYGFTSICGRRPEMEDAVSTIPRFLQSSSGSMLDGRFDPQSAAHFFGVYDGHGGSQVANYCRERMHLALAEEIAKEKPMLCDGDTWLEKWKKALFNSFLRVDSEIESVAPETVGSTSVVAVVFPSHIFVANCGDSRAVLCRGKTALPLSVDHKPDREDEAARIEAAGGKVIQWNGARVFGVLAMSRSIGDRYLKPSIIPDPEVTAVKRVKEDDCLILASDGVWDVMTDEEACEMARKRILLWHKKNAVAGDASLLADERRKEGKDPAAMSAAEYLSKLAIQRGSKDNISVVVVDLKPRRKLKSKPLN
Put plainly: In vitro assay: inhibition of the phosphatase ABI1 via the co-regulator RCAR11/PYR1 (dephosphorylation of 4-methylumbelliferyl phosphate, fluorescence). The format is biochemical. The conditions noted are these: 5 μM substance in a solution of DMSO and water, MUP substrate. The text has this: Effects of the phytohormone abscisic acid (ABA) on the behavior of plants under abiotic stress and the mechanism of action of ABA are described in the literature (cf. Abrams et al., WO97/23441, Park et al. Science, 2009, 324, 1068; Grill et al. Science, 2009, 324, 1064; Tanokura et al. Biophysics, 2011, 7, 123; Schroeder et al. Plant J. 2010, 61, 290). Therefore, it is possible with the aid of a suitable in vitro test system to derive a correlation between the action of ABA and the stress response of a plant under abiotic stress. In the event of water deficiency (drought stress), plants form the phytohormone abscisic acid (ABA). […]
The assay described hereinafter utilizes the inhibition of the phosphatase ABI1 via the co-regulator RCAR11/PYR1 aus Arabidopsis thaliana. For the determination of activity, the dephosphorylation of 4-methylumbelliferyl phosphate (MUP) was measured at 460 nm. […]
Enzyme buffer mix and substrate mix were made up 5 minutes prior to the addition and warmed to a temperature of 35° C. […] Finally, a relative fluorescence measurement was made at 35° C. with a BMG Labtech “POLARstar Optima” microplate reader using a 340/10 nm excitation filter and a 460 nm emission filter. […]

With `CC1=CC(=O)CC(C)(C)[C@@]1(O)/C=C/C(C)=C\C(=O)O` [abscisic acid], the ABI1 inhibition result is “++++ (inhibition≥90%)”.
